# According to PubChem BioAssay AID256 (DTP/NCI, 2004):
# Several values for one entry are separate records, joined by “and”; a condition that tells them apart may be missing. Equal entries are not always repeated. Inconclusive results and toxic doses are left out.
# System: CD2F1 mice, L1210 leukemia ip, survival T/C
# Test: NCI In Vivo Anticancer Drug Screen. Data for tumor model L1210 Leukemia (intraperitoneal) in CD2F1 (CDF1) mice
# Settings: higher = longer survival
# Procedure, shortened: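 Antitumor effect is scored in animals hosting a serially transplanted tumor. Values compare compound-dosed animals against vehicle-only controls as a simple quotient.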
# [1] = endpoint: mean survival time, dose: 12.5 mg/kg/injection, schedule: Q01DX005 (ip), vehicle: distilled water + Tween-80
# [2] = endpoint: mean survival time, dose: 25.0 mg/kg/injection, schedule: Q01DX005 (ip), vehicle: distilled water + Tween-80
# [3] = endpoint: mean survival time, dose: 50.0 mg/kg/injection, schedule: Q01DX005 (ip), vehicle: distilled water + Tween-80
# [4] = endpoint: mean survival time, dose: 100.0 mg/kg/injection, schedule: Q04DX002 (ip), vehicle: saline with Tween-80
# [5] = endpoint: mean survival time, dose: 200.0 mg/kg/injection, schedule: Q04DX002 (ip), vehicle: saline with Tween-80
# [6] = endpoint: mean survival time, dose: 400.0 mg/kg/injection, schedule: Q04DX002 (ip), vehicle: saline with Tween-80
compound,measurement,setting,value
[N-]=[N+]=CC(=O)CCC(N)C(=O)O (centres undefined),T/C,"endpoint: mean survival time, dose: 0.03 mg/kg/injection, schedule: Q01DX009 (ip), vehicle: saline",119 % of control
same,T/C,"endpoint: mean survival time, dose: 0.05 mg/kg/injection, schedule: Q01DX009 (ip), vehicle: saline",116 % of control
same,T/C,"endpoint: mean survival time, dose: 0.05 mg/kg/injection, schedule: Q01DX009 (oral), vehicle: saline",107 % of control
same,T/C,"endpoint: mean survival time, dose: 0.05 mg/kg/injection, schedule: Q01DX009 (sc), vehicle: saline",117 % of control
same,T/C,"endpoint: mean survival time, dose: 0.1 mg/kg/injection, schedule: Q03DX003 (ip), vehicle: saline",115 % of control
same,T/C,"endpoint: mean survival time, dose: 0.1 mg/kg/injection, schedule: Q04DX003 (ip), vehicle: saline",117 % of control
same,T/C,"endpoint: mean survival time, dose: 0.2 mg/kg/injection, schedule: Q01DX009 (oral), vehicle: saline",116 % of control
same,T/C,"endpoint: mean survival time, dose: 0.2 mg/kg/injection, schedule: Q03DX003 (ip), vehicle: saline",118 % of control
same,T/C,"endpoint: mean survival time, dose: 0.2 mg/kg/injection, schedule: Q04DX003 (ip), vehicle: saline",123 % of control
same,T/C,"endpoint: mean survival time, dose: 0.4 mg/kg/injection, schedule: Q03HX024 (ip), vehicle: saline",162 % of control
same,T/C,"endpoint: mean survival time, dose: 0.8 mg/kg/injection, schedule: Q01DX009 (sc), vehicle: saline",90 % of control
same,T/C,"endpoint: mean survival time, dose: 0.8 mg/kg/injection, schedule: Q03HX024 (ip), vehicle: saline",102 % of control
same,T/C,"endpoint: mean survival time, dose: 1.6 mg/kg/injection, schedule: Q03HX024 (ip), vehicle: saline",105 % of control
same,T/C,"endpoint: mean survival time, dose: 3.1 mg/kg/injection, schedule: Q03HX016 (ip), vehicle: saline",119 % of control
same,T/C,"endpoint: mean survival time, dose: 6.25 mg/kg/injection, schedule: Q03HX008 (ip), vehicle: saline",118 % of control
same,T/C,"endpoint: mean survival time, dose: 6.25 mg/kg/injection, schedule: Q04DX003 (ip), vehicle: saline",156 % of control
same,T/C,"endpoint: mean survival time, dose: 25.0 mg/kg/injection, schedule: Q04DX003 (ip), vehicle: saline",155 % of control
same,T/C,"endpoint: mean survival time, dose: 25.0 mg/kg/injection, schedule: Q08DX002 (ip), vehicle: saline",150 % of control
same,T/C,"endpoint: mean survival time, dose: 50.0 mg/kg/injection, schedule: Q01DX001 (ip), vehicle: saline",151 % of control
same,T/C,"endpoint: mean survival time, dose: 50.0 mg/kg/injection, schedule: Q04DX003 (ip), vehicle: saline",122 % of control
same,T/C,"endpoint: mean survival time, dose: 50.0 mg/kg/injection, schedule: Q08DX002 (ip), vehicle: saline",162 % of control
same,T/C,"endpoint: mean survival time, dose: 100.0 mg/kg/injection, schedule: Q01DX001 (ip), vehicle: saline",151 % of control
same,T/C,"endpoint: mean survival time, dose: 100.0 mg/kg/injection, schedule: Q01DX001 (oral), vehicle: saline",115 % of control
same,T/C,"endpoint: mean survival time, dose: 100.0 mg/kg/injection, schedule: Q08DX002 (ip), vehicle: saline",155 % of control
same,T/C,"endpoint: mean survival time, dose: 200.0 mg/kg/injection, schedule: Q01DX001 (oral), vehicle: saline",88 % of control
same,T/C,"endpoint: mean survival time, dose: 200.0 mg/kg/injection, schedule: Q01DX001 (sc), vehicle: saline",110 % of control
same,T/C,"endpoint: mean survival time, dose: 13.0 micrograms/kg/injection, schedule: Q01DX Z (ip), vehicle: saline",96 % of control
same,T/C,"endpoint: mean survival time, dose: 25.0 micrograms/kg/injection, schedule: Q01DX Z (ip), vehicle: saline",94 % of control
same,T/C,"endpoint: mean survival time, dose: 50.0 micrograms/kg/injection, schedule: Q01DX Z (ip), vehicle: saline",100 % of control
same,T/C,"endpoint: mean survival time, dose: 93.7 micrograms/kg/injection, schedule: Q01DX009 (ip), vehicle: saline",124 % of control
same,T/C,"endpoint: median survival time, dose: 0.06 mg/kg/injection, schedule: Q01DX009 (ip), vehicle: saline",119 % of control
same,T/C,"endpoint: median survival time, dose: 0.25 mg/kg/injection, schedule: Q01DX009 (ip), vehicle: saline",118 % of control
same,T/C,"endpoint: median survival time, dose: 0.39 mg/kg/injection, schedule: Q01DX009 (ip), vehicle: saline",98 % of control
same,T/C,"endpoint: median survival time, dose: 0.5 mg/kg/injection, schedule: Q01DX009 (ip), vehicle: saline",102 % of control
same,T/C,"endpoint: median survival time, dose: 0.8 mg/kg/injection, schedule: Q01DX009 (ip), vehicle: saline",94 % of control and 98 % of control
same,T/C,"endpoint: median survival time, dose: 2.5 mg/kg/injection, schedule: Q04DX003 (ip), vehicle: saline",152 % of control
same,T/C,"endpoint: median survival time, dose: 5.0 mg/kg/injection, schedule: Q04DX003 (ip), vehicle: saline",153 % of control and 163 % of control
same,T/C,"endpoint: median survival time, dose: 10.0 mg/kg/injection, schedule: Q04DX003 (ip), vehicle: saline",167 % of control and 173 % of control
same,T/C,"endpoint: median survival time, dose: 20.0 mg/kg/injection, schedule: Q04DX003 (ip), vehicle: saline",184 % of control and 189 % of control
same,T/C,"endpoint: median survival time, dose: 40.0 mg/kg/injection, schedule: Q04DX003 (ip), vehicle: saline",195 % of control and 205 % of control
same,T/C,"endpoint: median survival time, dose: 100.0 mg/kg/injection, schedule: Q01DX001 (ip), vehicle: saline",114 % of control
N=c1ccn2c(n1)OC1C(OC(=O)C34CC5CC(CC(C5)C3)C4)C(COC(=O)C34CC5CC(CC(C5)C3)C4)OC12 (centres undefined),T/C,[1],104 % of control
same,T/C,[2],107 % of control
same,T/C,[3],121 % of control
O=C(COc1ccc(Cl)cc1)Oc1c(Cl)cc(Cl)cc1Cl,T/C,[4],98 % of control
same,T/C,[5],98 % of control
same,T/C,[6],94 % of control
O=S(=O)(O)SCCN1CCCCC1,T/C,"endpoint: mean survival time, dose: 12.5 mg/kg/injection, schedule: Q01DX009 (ip), vehicle: saline",104 % of control
same,T/C,"endpoint: mean survival time, dose: 12.5 mg/kg/injection, schedule: Q04DX003 (ip), vehicle: saline sonified",102 % of control
same,T/C,"endpoint: mean survival time, dose: 25.0 mg/kg/injection, schedule: Q01DX009 (ip), vehicle: saline",106 % of control
same,T/C,"endpoint: mean survival time, dose: 25.0 mg/kg/injection, schedule: Q04DX003 (ip), vehicle: saline sonified",101 % of control
same,T/C,"endpoint: mean survival time, dose: 50.0 mg/kg/injection, schedule: Q01DX009 (ip), vehicle: saline",104 % of control
same,T/C,"endpoint: mean survival time, dose: 50.0 mg/kg/injection, schedule: Q04DX003 (ip), vehicle: saline sonified",91 % of control
COc1ccc(C(=O)C(c2ccccc2)c2ccccc2)cc1,T/C,"endpoint: mean survival time, dose: 100.0 mg/kg/injection, schedule: Q04DX003 (ip), vehicle: saline with Tween-80",93 % of control
same,T/C,"endpoint: mean survival time, dose: 200.0 mg/kg/injection, schedule: Q04DX003 (ip), vehicle: saline with Tween-80",94 % of control
same,T/C,"endpoint: mean survival time, dose: 400.0 mg/kg/injection, schedule: Q04DX003 (ip), vehicle: saline with Tween-80",90 % of control
O=C(OCC1OC(n2nc(SCc3ccccc3)c(=S)[nH]c2=O)C(OC(=O)c2ccccc2)C1OC(=O)c1ccccc1)c1ccccc1 (centres undefined),T/C,[1],101 % of control
same,T/C,[2],95 % of control
same,T/C,[3],102 % of control
same,T/C,"endpoint: mean survival time, dose: 100.0 mg/kg/injection, schedule: Q01DX005 (ip), vehicle: distilled water + Tween-80",93 % of control
same,T/C,"endpoint: mean survival time, dose: 200.0 mg/kg/injection, schedule: Q01DX005 (ip), vehicle: distilled water + Tween-80",95 % of control
CC(C)OC(=O)Nc1nc2ccccc2s1,T/C,[4],92 % of control
same,T/C,[5],95 % of control
same,T/C,[6],92 % of control
